From US6565891B1, “Nutritional supplement for children” (Tsar Health Private Ltd., priority 2002, dated 2003)

Assays:
Antibody response = assay: Zinc dose response: antibody response; type: in vivo, human; details: children age 4-12 years
Procedure: (§1) The basic concept underlying the assessment of the most optimum nutrient amounts for a given age group uses the principle of“dose-response curves”. At least four groups of individuals were provided with various amounts of a given nutrient and their immune responses were measured using established and accepted techniques. The amount of a nutrient that gave the best response was considered the optimum amount. Dose response curves were determined for all vitamins and trace elements considered essential for human health, particularly immunity.
(§2) The ratio of radioactivity in the test samples divided by radioactivity in control samples gave the “stimulation response” shown in FIGS. 1 and 2.

blood lymphocytes = assay: Zinc dose response: lymphocyte response to PHA (stimulation index); type: in vivo, human; details: children age 4-12 years, diet zinc 5 mg, median (standard deviation)
Procedure: as §1
Data for the dose response curve for zinc in a group of 4 to 12 year old children is shown in FIGS. 1 and 2, with the total amount of zinc taken is shown for each group. To determine the magnitude of immune response, an aliquot of blood was withdrawn from each subject in the study, blood lymphocytes were separated, washed and mixed with the mitogen phytohemagglutinin (PHA) in previously determined optimum amount. The optimum amount of PHA used in the experiments was predetermined by a set of dose response curves using lymphocytes of a healthy donor and four different concentrations of PHA. After culture in a sterile environment for 72 hours, the cells were washed and mixed with radioactive thymidine. The same steps were undertaken in a control sample in which only the culture medium was used, not PHA. The cells were washed and radioactivity determined.
as §2

Interleukin-2 = assay: Zinc dose response: interleukin-2; type: in vivo, human; details: children age 4-12 years, median (standard deviation)
Procedure: as §1, §2

Thymulin activity = assay: Zinc dose response: thymulin activity; type: in vivo, human; details: children age 4-12 years
Procedure: as §1, §2

[1] = in vivo; cited from earlier work

SMILES | Antibody response (median reciprocal titre) (Antibody response; 7 mg supplemental zinc) | Antibody response (median reciprocal titre) (Antibody response; 20 mg supplemental zinc) | Antibody response (median reciprocal titre) (Antibody response; 50 mg supplemental zinc) | Lymphocyte response to PHA (stimulation index) (blood lymphocytes; 7 mg supplemental zinc) | Lymphocyte response to PHA (stimulation index) (blood lymphocytes; 20 mg supplemental zinc) | Lymphocyte response to PHA (stimulation index) (blood lymphocytes; 50 mg supplemental zinc) | Interleukin-2 (Interleukin-2; 7 mg supplemental zinc) | Interleukin-2 (Interleukin-2; 20 mg supplemental zinc) | Interleukin-2 (Interleukin-2; 50 mg supplemental zinc) | Thymulin activity (median reciprocal titre) (Thymulin activity; 7 mg supplemental zinc) | Thymulin activity (median reciprocal titre) (Thymulin activity; 20 mg supplemental zinc) | Thymulin activity (median reciprocal titre) (Thymulin activity; 50 mg supplemental zinc) | biologic half-life in the body [1]
[Zn] [zinc] | 318 | 129 | 73 | 86(11) | 54(9) | 41(8) | 16(2.0) units/ml | 11(1.5) units/ml | 8(1.3) units/ml | 216 | 187 | 166 | –
Cc1ncc(C[n+]2csc(CCO)c2C)c(N)n1 [Thiamin] | – | – | – | – | – | – | – | – | – | – | – | – | about 15 days
